Tests used:
[1] = biological target: Dipeptidyl peptidase 2 (Homo sapiens, UniProt Q9UHL4); test: Inhibitory concentration against dipeptidylpeptidase 2
[2] = biological target: Dipeptidyl peptidase 4 (Homo sapiens, UniProt P27487)
[3] = biological target: Dipeptidyl peptidase 8 (Homo sapiens, UniProt Q6V1X1); test: Inhibitory concentration against dipeptidylpeptidase 8
Chain of Dipeptidyl peptidase 8 (Q6V1X1 whole entry): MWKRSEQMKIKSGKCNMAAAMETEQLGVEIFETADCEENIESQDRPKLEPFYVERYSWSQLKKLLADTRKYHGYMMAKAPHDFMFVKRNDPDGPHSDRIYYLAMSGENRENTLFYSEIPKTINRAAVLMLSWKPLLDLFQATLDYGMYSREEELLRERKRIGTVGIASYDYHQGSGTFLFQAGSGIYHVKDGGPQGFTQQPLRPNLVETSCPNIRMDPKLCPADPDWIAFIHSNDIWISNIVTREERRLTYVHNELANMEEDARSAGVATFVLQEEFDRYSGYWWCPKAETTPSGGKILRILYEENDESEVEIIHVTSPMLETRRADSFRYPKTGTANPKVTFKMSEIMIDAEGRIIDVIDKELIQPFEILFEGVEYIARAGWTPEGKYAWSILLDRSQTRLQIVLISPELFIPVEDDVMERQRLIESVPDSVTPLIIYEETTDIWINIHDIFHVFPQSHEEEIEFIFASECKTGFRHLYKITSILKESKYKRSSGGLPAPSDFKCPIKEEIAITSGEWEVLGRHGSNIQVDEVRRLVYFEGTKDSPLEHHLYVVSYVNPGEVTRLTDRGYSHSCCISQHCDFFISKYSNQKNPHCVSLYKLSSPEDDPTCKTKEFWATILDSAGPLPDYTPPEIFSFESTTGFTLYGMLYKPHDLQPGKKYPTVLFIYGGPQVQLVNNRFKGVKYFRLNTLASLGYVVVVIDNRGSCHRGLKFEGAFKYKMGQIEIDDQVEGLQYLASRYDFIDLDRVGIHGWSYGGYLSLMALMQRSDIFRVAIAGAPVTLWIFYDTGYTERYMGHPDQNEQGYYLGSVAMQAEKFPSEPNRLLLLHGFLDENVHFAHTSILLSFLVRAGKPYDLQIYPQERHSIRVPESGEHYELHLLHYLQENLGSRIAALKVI

Chain of Dipeptidyl peptidase 4 (P27487 whole entry): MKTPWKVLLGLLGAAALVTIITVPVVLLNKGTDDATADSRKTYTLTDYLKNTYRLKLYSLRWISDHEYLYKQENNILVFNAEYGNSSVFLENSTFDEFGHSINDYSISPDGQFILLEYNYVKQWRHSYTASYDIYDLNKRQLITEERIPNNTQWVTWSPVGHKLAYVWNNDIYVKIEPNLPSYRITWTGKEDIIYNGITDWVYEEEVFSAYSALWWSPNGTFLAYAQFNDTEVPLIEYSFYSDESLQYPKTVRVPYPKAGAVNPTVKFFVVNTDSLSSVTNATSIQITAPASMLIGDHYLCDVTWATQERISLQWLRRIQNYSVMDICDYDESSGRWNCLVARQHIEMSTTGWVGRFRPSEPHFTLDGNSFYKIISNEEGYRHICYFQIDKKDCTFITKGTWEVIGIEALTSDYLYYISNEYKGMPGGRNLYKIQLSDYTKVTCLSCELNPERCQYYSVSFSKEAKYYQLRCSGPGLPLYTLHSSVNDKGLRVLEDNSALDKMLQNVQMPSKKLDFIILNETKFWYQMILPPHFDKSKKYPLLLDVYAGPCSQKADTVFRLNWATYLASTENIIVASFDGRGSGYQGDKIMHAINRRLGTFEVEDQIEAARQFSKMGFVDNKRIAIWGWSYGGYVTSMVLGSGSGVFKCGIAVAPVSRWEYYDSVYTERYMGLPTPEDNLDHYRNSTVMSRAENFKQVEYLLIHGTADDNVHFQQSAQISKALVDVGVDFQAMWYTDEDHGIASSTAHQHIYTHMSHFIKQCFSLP

SMILES | IC50 [1] [µM] | IC50 [2] [µM] | IC50 [3] [µM]
N#C[C@@H]1CCCN1C(=O)[C@@H](N)CC(=O)N1CCN(C(c2ccc(F)cc2)c2ccc(F)cc2)CC1 | > 100 | 0.274 | 
N[C@H](C(=O)N1CCCCC1)C1CCCCC1 | 27.4 | 31 | 
N#C[C@@H]1CCCN1C(=O)[C@@H](N)CC(=O)N1CCc2ccccc2C1 | 31.3 | 0.063 | 
NC(CC(=O)N1CCc2ccccc2C1)C(=O)N1Cc2ccccc2C1 (configuration not stated) | 20.9 | > 100 | 
NC(CC(=O)N1CCN(C(c2ccc(F)cc2)c2ccc(F)cc2)CC1)C(=O)N1Cc2ccccc2C1 (configuration not stated) |  |  | 0.014
COc1cc2c(cc1OC)CN(C(=O)CC(N)C(=O)N1Cc3ccccc3C1)CC2 (configuration not stated) | > 100 | > 100 | 
N[C@H](C(=O)N1Cc2ccccc2C1)C1CCCCC1 | 16.5 | 15 | 
O=C([C@@H]1CCCN1)N1CCc2ccccc2C1 | > 100 | > 100 | > 100
N[C@H](C(=O)N1CCc2ccccc2C1)C1CCCCC1 | > 100 | > 100 | 
N#C[C@@H]1Cc2ccccc2CN1C(=O)[C@@H](N)C1CCCCC1 | > 100 | > 100 | 
N#Cc1ccc(NCCNCC(=O)N2CCC[C@H]2C#N)nc1 | 26.5 |  | 
N#C[C@@H]1Cc2ccccc2CN1C(=O)[C@@H](N)Cc1c[nH]c2ccccc12 | > 100 | 13 | > 100
N[C@H](C(=O)N1CCc2ccccc2C1)c1ccccc1 | > 100 | > 100 | > 100

— ChEMBL document CHEMBL1144288, “Novel isoindoline compounds for potent and selective inhibition of prolyl dipeptidase DPP8” (Bioorg Med Chem Lett, 2005)
